Source: ChEMBL document CHEMBL4190187, “Discovery of pyrazolopyrimidine derivatives as novel inhibitors of ataxia telangiectasia and rad3 related protein (ATR)” (Bioorg Med Chem Lett, 2017)

How the values were obtained:
[1] = biological target: Serine/threonine-protein kinase pim-2 (Homo sapiens) (UniProt Q9P1W9); assay: Inhibition of recombinant human PIM2 (2 to end residues) at 1 uM using RSRHSSYPAGT as substrate after 40 mins in presence of [gamma-33P]ATP by scintillation counting method
[2] = biological target: 5'-AMP-activated protein kinase catalytic subunit alpha-1 (Homo sapiens) (UniProt Q13131); assay: Inhibition of recombinant full-length human AMPKalpha1 at 1 uM using AMARAASAAALARRR as substrate after 40 mins in presence of [gamma-33P]ATP by scintillation counting method
[3] = biological target: Serine/threonine-protein kinase NIM1 (Homo sapiens) (UniProt Q8IY84); assay: Inhibition of recombinant full-length human NIM1 at 1 uM using KKKVSRSGLYRSPSMPENLNRPR as substrate after 40 mins in presence of [gamma-33P]ATP by scintillation counting method
[4] = biological target: Ribosomal protein S6 kinase alpha-2 (Homo sapiens) (UniProt Q15349); assay: Inhibition of recombinant full-length human Rsk3 at 1 uM using KKKNRTLSVA as substrate after 40 mins in presence of [gamma-33P]ATP by scintillation counting method
[5] = biological target: Ephrin type-B receptor 1 (Homo sapiens) (UniProt P54762); assay: Inhibition of recombinant human EPHB1 (564 to end residues) at 1 uM using KVEKIGEGTYGVVYK as substrate after 40 mins in presence of [gamma-33P]ATP by scintillation counting method
[6] = test system: Tyrosine-protein kinase ABL1 (Homo sapiens), P00519 [T315I]; assay: Inhibition of recombinant human Abl T315I mutant (27 to end residues) at 1 uM using EAIYAAPFAKKK as substrate after 40 mins in presence of [gamma-33P]ATP by scintillation counting method
[7] = biological target: Phosphatidylinositol 4-phosphate 5-kinase type-1 alpha (Homo sapiens) (UniProt Q99755); assay: Inhibition of recombinant full-length human PIP5K1alpha at 1 uM using phosphatidylinositol 4-phosphate/phosphatidylserine as substrate after 40 mins in presence of [gamma-33P]ATP by scintillation counting method
[8] = biological target: Calcium/calmodulin-dependent protein kinase type II subunit delta (Homo sapiens) (UniProt Q13557); assay: Inhibition of recombinant full-length human CAMK2delta at 1 uM using […] after 40 mins in presence of [gamma-33P]ATP by scintillation counting method
[9] = test system: Mast/stem cell growth factor receptor Kit (Homo sapiens), P10721 [V560G]; assay: Inhibition of recombinant human cKit V560G mutant (544 to end residues) at 1 uM using GGMEDIYFEFMGGKKK as substrate after 40 mins in presence of [gamma-33P]ATP by scintillation counting method
[10] = biological target: Dual specificity tyrosine-phosphorylation-regulated kinase 1B (Homo sapiens) (UniProt Q9Y463); assay: Inhibition of recombinant full-length human DYRK1B at 1 uM using RRRFRPASPLRGPPK as substrate after 40 mins in presence of [gamma-33P]ATP by scintillation counting method
[11] = biological target: Death-associated protein kinase 2 (Homo sapiens) (UniProt Q9UIK4); assay: Inhibition of recombinant full-length human DAPK2 at 1 uM using […] after 40 mins in presence of [gamma-33P]ATP by scintillation counting method
[12] = biological target: Phosphorylase b kinase gamma catalytic chain, skeletal muscle/heart isoform (Homo sapiens) (UniProt Q16816); assay: Inhibition of recombinant full-length human PhKgamma1 at 1 uM using KKLNRTLSFAEPG as substrate after 120 mins in presence of [gamma-33P]ATP by scintillation counting method
[13] = biological target: Ephrin type-A receptor 1 (Homo sapiens) (UniProt P21709); assay: Inhibition of recombinant human EPHA1 ([…]) at 1 uM using KKKSPGEYVNIEFG as substrate after 40 mins in presence of [gamma-33P]ATP by scintillation counting method
[14] = biological target: Ephrin type-A receptor 7 (Homo sapiens) (UniProt Q15375); assay: Inhibition of recombinant human EPHA7 (613 to 909 residues) at 1 uM using KTFCGTPEYLAPEVRREPRILSEEEQEMFRDFDYIADWC as substrate after 40 mins in presence of [gamma-33P]ATP by scintillation counting method
[15] = test system: Mus musculus; assay: Oral bioavailability in mouse at 10 mg/kg; format: ADME, organism-based; conditions: in vivo
[16] = biological target: Casein kinase II subunit alpha (Homo sapiens) (UniProt P68400); assay: Inhibition of recombinant full-length human CK2alpha1 at 1 uM using RRRDDDSDDD as substrate after 40 mins in presence of [gamma-33P]ATP by scintillation counting method
[17] = biological target: Tyrosine-protein kinase ITK/TSK (Homo sapiens) (UniProt Q08881); assay: Inhibition of recombinant human ITK (352 to 617 residues) at 1 uM using myelin basic protein as substrate after 40 mins in presence of [gamma-33P]ATP by scintillation counting method
[18] = biological target: Serine/threonine-protein kinase pim-3 (Homo sapiens) (UniProt Q86V86); assay: Inhibition of recombinant human PIM3 (2 to end residues) at 1 uM using RSRHSSYPAGT as substrate after 40 mins in presence of [gamma-33P]ATP by scintillation counting method
[19] = biological target: Serine/threonine-protein kinase PLK1 (Homo sapiens) (UniProt P53350); assay: Inhibition of recombinant full-length human Plk1 at 1 uM using casein as substrate after 40 mins in presence of [gamma-33P]ATP by scintillation counting method
[20] = biological target: ALK tyrosine kinase receptor (Homo sapiens) (UniProt Q9UM73); assay: Inhibition of recombinant human ALK (1058 to end residues) at 1 uM using KKKSPGEYVNIEFG as substrate after 40 mins in presence of [gamma-33P]ATP by scintillation counting method
[21] = biological target: Hepatocyte growth factor receptor (Homo sapiens) (UniProt P08581); assay: Inhibition of recombinant human Met (974 to end residues) at 1 uM using KKKGQEEEYVFIE as substrate after 40 mins in presence of [gamma-33P]ATP by scintillation counting method
[22] = biological target: Glycogen synthase kinase-3 beta (Homo sapiens) (UniProt P49841); assay: Inhibition of recombinant human GSK3beta (2 to end residues) at 1 uM using YRRAAVPPSPSLSRHSSPHQS(p)EDEEE (phospho GS2 peptide) as substrate after 40 mins in presence of [gamma-33P]ATP by scintillation counting method
[23] = biological target: Mitogen-activated protein kinase kinase kinase 7 (Homo sapiens) (UniProt O43318); assay: Inhibition of recombinant human TAK1 (1 to 303 residues) at 1 uM using casein as substrate after 40 mins in presence of [gamma-33P]ATP by scintillation counting method
[24] = biological target: Calcium/calmodulin-dependent protein kinase kinase 2 (Homo sapiens) (UniProt Q96RR4); assay: Inhibition of recombinant full-length human CAMKK2 at 1 uM using […] after 40 mins in presence of [gamma-33P]ATP by scintillation counting method

Chain of Phosphatidylinositol 4-phosphate 5-kinase type-1 alpha (Homo sapiens) (Q99755 whole entry): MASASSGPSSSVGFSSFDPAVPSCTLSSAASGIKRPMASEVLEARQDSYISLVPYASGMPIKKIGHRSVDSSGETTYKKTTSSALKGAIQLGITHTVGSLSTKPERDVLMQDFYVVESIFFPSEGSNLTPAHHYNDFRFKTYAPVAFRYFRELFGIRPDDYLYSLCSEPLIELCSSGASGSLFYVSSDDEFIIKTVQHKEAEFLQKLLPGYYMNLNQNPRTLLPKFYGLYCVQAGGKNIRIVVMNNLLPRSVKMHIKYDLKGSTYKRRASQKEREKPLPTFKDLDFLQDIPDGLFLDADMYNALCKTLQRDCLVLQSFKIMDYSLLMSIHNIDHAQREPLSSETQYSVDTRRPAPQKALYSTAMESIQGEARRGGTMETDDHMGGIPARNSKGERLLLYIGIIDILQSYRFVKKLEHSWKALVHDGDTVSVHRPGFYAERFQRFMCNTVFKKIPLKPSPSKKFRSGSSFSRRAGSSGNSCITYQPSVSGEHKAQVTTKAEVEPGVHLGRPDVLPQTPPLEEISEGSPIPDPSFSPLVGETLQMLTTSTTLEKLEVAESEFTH
Chain of Ephrin type-A receptor 1 (Homo sapiens) (P21709 whole entry, the tested form may be a part): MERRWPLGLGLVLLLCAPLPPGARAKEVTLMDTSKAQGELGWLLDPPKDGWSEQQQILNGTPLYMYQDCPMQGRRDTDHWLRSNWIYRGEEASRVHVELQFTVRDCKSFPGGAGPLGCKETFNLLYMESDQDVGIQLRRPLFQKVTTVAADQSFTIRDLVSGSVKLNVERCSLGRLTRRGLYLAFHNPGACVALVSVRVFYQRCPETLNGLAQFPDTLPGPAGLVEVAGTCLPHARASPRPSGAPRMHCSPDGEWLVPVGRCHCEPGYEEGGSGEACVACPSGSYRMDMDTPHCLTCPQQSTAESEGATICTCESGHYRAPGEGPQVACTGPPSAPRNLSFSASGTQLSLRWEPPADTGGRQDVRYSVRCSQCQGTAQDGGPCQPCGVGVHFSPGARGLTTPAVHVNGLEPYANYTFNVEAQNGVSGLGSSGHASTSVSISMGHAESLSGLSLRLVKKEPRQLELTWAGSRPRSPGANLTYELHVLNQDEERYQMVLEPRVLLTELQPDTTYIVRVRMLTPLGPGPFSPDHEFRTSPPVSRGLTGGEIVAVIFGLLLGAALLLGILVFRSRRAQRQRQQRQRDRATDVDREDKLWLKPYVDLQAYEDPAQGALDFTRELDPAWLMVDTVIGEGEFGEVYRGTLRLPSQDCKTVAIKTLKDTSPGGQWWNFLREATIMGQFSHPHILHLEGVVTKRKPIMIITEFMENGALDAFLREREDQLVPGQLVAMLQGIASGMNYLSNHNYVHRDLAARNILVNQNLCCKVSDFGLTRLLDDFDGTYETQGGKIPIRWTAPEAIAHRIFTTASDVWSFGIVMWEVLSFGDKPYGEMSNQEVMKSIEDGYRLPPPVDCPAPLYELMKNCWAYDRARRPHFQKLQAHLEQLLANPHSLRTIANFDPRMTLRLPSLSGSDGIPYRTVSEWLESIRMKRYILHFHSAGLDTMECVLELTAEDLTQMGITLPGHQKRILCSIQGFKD
Chain of Serine/threonine-protein kinase PLK1 (Homo sapiens) (P53350 whole entry): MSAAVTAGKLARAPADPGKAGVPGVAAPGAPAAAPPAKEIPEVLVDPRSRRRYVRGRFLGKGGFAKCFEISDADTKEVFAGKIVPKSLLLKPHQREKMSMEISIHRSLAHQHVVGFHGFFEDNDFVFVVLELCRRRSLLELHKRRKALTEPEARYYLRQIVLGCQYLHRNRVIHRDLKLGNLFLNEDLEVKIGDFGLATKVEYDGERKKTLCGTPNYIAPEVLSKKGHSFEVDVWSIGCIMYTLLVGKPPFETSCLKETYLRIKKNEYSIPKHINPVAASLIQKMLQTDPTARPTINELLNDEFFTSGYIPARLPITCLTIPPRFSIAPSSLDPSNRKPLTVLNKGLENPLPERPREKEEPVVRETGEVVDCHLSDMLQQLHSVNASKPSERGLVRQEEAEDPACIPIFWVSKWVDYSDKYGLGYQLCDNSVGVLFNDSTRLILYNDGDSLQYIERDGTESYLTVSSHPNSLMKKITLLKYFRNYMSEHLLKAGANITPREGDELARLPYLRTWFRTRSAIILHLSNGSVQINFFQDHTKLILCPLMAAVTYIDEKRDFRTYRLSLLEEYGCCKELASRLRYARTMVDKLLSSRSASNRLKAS
Chain of Glycogen synthase kinase-3 beta (Homo sapiens) (P49841 whole entry, looked up, the tested form may be a part): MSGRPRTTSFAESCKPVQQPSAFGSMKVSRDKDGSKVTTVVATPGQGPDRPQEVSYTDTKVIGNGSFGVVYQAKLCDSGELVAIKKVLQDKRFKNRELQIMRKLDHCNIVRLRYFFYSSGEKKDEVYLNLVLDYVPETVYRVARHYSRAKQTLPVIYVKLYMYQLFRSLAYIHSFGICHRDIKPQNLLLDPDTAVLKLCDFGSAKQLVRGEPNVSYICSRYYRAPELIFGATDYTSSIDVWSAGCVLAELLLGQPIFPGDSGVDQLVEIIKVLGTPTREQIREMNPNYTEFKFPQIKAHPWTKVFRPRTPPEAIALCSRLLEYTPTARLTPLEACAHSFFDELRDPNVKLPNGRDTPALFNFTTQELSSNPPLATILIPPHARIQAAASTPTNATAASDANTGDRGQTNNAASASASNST
Chain of Ephrin type-A receptor 7 (Homo sapiens) (Q15375 28-998 limits assumed): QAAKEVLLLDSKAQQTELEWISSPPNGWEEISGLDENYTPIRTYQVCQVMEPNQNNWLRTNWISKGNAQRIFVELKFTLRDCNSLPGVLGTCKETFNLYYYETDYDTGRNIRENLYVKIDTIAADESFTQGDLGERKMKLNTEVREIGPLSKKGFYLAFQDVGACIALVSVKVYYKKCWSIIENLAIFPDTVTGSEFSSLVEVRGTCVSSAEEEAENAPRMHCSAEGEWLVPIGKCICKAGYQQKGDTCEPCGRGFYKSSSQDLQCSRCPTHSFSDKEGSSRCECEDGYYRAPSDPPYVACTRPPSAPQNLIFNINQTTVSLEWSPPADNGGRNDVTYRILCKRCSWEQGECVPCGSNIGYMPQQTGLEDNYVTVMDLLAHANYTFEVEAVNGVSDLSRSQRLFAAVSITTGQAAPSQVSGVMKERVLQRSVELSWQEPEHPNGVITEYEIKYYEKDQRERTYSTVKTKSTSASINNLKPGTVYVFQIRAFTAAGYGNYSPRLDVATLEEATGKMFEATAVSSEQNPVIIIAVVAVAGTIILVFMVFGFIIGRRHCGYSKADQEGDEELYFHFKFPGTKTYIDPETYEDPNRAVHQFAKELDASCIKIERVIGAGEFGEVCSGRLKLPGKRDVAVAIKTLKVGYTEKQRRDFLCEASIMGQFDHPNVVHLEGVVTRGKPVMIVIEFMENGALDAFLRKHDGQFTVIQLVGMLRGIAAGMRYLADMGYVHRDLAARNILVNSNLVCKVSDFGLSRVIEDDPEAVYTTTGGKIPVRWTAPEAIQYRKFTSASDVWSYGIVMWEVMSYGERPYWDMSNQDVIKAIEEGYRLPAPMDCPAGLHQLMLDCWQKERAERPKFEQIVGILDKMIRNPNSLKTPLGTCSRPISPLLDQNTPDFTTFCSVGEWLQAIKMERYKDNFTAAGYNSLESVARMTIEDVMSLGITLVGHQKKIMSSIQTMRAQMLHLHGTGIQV
Chain of Tyrosine-protein kinase ITK/TSK (Homo sapiens) (Q08881 whole entry, the tested form may be a part): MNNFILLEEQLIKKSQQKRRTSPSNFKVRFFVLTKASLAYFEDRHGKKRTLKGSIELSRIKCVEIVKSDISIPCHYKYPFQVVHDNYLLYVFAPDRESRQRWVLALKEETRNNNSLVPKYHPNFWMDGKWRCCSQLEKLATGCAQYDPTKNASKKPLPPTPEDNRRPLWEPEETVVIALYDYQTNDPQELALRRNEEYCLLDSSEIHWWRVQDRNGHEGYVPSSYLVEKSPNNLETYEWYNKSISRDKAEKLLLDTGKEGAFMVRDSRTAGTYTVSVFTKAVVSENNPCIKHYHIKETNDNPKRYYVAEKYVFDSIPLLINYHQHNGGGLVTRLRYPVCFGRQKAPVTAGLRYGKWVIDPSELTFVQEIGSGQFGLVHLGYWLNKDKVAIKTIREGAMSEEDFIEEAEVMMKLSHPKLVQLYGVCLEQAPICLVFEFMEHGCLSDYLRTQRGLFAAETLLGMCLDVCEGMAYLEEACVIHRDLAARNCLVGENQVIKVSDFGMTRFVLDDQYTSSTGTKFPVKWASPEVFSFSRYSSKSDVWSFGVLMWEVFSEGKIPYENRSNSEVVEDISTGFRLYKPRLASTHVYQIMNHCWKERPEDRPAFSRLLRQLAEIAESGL
Chain of Death-associated protein kinase 2 (Homo sapiens) (Q9UIK4 whole entry, looked up, canonical isoform): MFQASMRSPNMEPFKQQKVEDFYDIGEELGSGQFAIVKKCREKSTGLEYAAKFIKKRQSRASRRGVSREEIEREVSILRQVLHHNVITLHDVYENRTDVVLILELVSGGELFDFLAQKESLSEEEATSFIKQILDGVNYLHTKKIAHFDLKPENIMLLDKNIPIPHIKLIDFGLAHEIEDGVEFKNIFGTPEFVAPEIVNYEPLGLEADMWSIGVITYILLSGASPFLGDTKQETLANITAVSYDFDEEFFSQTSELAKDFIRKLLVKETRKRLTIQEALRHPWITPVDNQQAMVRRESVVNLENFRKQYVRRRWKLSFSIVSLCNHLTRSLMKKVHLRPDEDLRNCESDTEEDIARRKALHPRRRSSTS

`CS(=O)(=O)c1ccc(-n2nc(-c3cnc4[nH]ccc4c3)c3c(N)ncnc32)cc1` gave an inhibition [1] of -7%, an inhibition [2] of -9% and an inhibition [3] of -5%. The inhibition [4] was -8%, the inhibition [5] was 22% and the inhibition [6] was 13%. For the same compound, the inhibition [7] was 2%, the inhibition [8] was 3% and the inhibition [9] was 76%. The inhibition [10] was -4%, the inhibition [11] was 4% and the inhibition [12] was -4%. The inhibition [13] was 24%, the inhibition [14] was 0% and the F [15] was 2.83%. For the same compound, the inhibition [16] was 19%, the inhibition [17] was -9% and the inhibition [18] was -1%. For the same compound, the inhibition [19] was -1%, the inhibition [20] was -4% and the inhibition [21] was -4%. For the same compound, the inhibition [22] was 2%, the inhibition [23] was -3% and the inhibition [24] was -4%.
